The source of these data is patent publication US20110206781A1, “METHOD TO MODULATE HEMATOPOIETIC STEM CELL GROWTH” (priority 2008, published 2011).

Data set [1] concerns runx1/cmyb+ HSCs in the zebrafish AGM. In words: runx1/cmyb in situ hybridization for HSC formation in zebrafish embryos at 36 hpf. It is filed as in vivo. Further details: effect on HSC formation at 36 hpf when treatment occurred before the onset of heartbeat: dose or concentration left out as unconfirmed. From the text:
In Situ Hybridizataion: Paraformaldehyde-fixed embryos were processed for in situ hybridization according to standard zebrafish protocols. Such protocols are available on-line through the The Zebrafish Model Organism Database. The following RNA probes were used: runx1, cmyb, flk1, ephrinB2, flt4, globin, mpo, mhc, and foxa3. Changes in expression compared to WT controls are reported as the number altered/number scored per genotype/treatment (North et al., 2007); a minimum of three independent experiments was conducted per analysis.
Chemical Exposure: Zebrafish embryos were exposed to chemicals at the doses indicated; dimethyl sulfoxide (DMSO) carrier content was 0.1%. For evaluation of HSC development, exposure ranged from early somitogenesis (5+ somites) until 36 hpf, unless otherwise noted.
(§1) Morpholino injection: Morpholino antisense oligonucleotides (MO; GENETOOLS, LLC, Philomath, Oreg.) designed against the ATG and exonl splice sites of nos1 (5′-[…] [SEQ. ID NO:1]; 5′-[…] [SEQ ID NO:2), nos2 (5′-[…] [SEQ ID NO:3]; 5′-[…] [SEQ ID NO:4]), and mismatched controls were injected into one-cell-stage embryos.

In a further data set the test system is HSCs. Description: in vivo confocal imaging of HSC number in cmyb:GFP; lmo2:dsRed embryos. Also on record: species or system zebrafish. As to conditions: lmo2:dsRed reporter fish, p<0.001, n=5. Here is the method: Confocal Microscopy: Fluorescent reporter embryos were exposed to blood flow modulators (10 μM, unless otherwise noted) as indicated, live embedded in 1% agarose, and imaged with a Zeiss LSM510 Meta confocal microscope at 36 hpf (North et al., 2007) or a Perkin Elmer UltaVIEW VoX spinning disk confocal microscope.

For another data set, the system named is nos1. In words: blastula transplantation of cmyb:GFP donor cells into lmo2:dsRed recipients. It is filed as in vivo, zebrafish. As to conditions: 36 hpf, p=0.0065. Here is the method: Blastula Transplantation: cmyb: GFP embryos were injected with nos1 or control MO at the one-cell stage. At the blastula stage, 100 cells were removed from the donor embryo and transplanted into stage-matched recipients. Embryos were analyzed by confocal microscopy at 36 hpf.
as §1

Take `CC(=O)N[C@H](C(=O)O)C(C)(C)SN=O` [SNAP, S-nitroso-N-acetyl-penicillamine]: the “effect on HSC formation at 36 hpf when treatment occurred before the onset of heartbeat” value in data set [1] (exposure 10 somites-23 hpf) is recorded as “capable of enhancing HSC number”. In the data set on HSCs, the “HSC number by confocal microscopy” value is reported as “increased HSC numbers”. Turning to “nos1 ATG MO: morpholino antisense oligonucleotide against the ATG site of nos1, 5′-ACGCTGGGCTCTGATTCCTGCATTG, SEQ ID NO:1 (all phosphorodiamidate morpholino (PMO))”, the “donor cell contribution to GFP+ HSC formation in transplanted embryos” value in the data set with nos1 is on record as “none”.

On to `N=C(N)NCCC[C@H](N)C(=O)O` [L-arg, L-arginine], for which, in data set [1] (sih−/− embryos, 36 hpf), the “effect on the sih hematopoietic defect (runx1/cmyb), in words” value was “rescued the sih hematopoietic defect”. Further, in data set [1] (wild-type embryos, 36 hpf, bradykinin 10 μM), the “effect on HSCs (runx1/cmyb), in words” value was “increased HSCs”.
